Experimental findings from ChEMBL document CHEMBL3045588, “Synthesis and Bleaching Activity of 3-Propargylthio-4-(substituted phenyl)-4H-1, 2, 4-triazoles” (1995) are described below.

The source made the active and inactive calls. The rule behind the calls is not given here.

Test [1] deals with Lactuca sativa. Description: Bleaching activity against Lactuca sativa cv. Sacramento (lettuce) seedlings assessed as bleaching ratings at 25 ppm incubated for 4 days at 25 degC under 12 hr photoperiod. It counts as functional.
Test [2] concerns Lactuca sativa. Description: Bleaching activity against Lactuca sativa cv. Sacramento (lettuce) seedlings assessed as bleaching ratings at 10 ppm incubated for 4 days at 25 degC under 12 hr photoperiod. It counts as functional.
Test [3] relates to Lactuca sativa. Briefly: Bleaching activity against Lactuca sativa cv. Sacramento (lettuce) seedlings assessed as bleaching ratings at 50 ppm incubated for 4 days at 25 degC under 12 hr photoperiod. It is filed as functional.
In test [4] the test system is Lactuca sativa. Description: Bleaching activity against Lactuca sativa cv. Sacramento (lettuce) seedlings assessed as bleaching ratings at 3 ppm incubated for 4 days at 25 degC under 12 hr photoperiod. It is filed as functional.
Test [5] deals with Radish. Briefly: Reduction in chlorophyll content in Raphanus sativus cv. Osaka (radish) seedlings at 100 uM incubated for 4 days at 25 degC under 12 hr photoperiod by spectrophotometry. It is filed as functional, organism-based.
The test system of test [6] is Lactuca sativa. Briefly: Bleaching activity against Lactuca sativa cv. Sacramento (lettuce) seedlings assessed as bleaching ratings at 5 ppm incubated for 4 days at 25 degC under 12 hr photoperiod. It counts as functional.
Test [7] has as its system Lactuca sativa. Description: Bleaching activity against Lactuca sativa cv. Sacramento (lettuce) seedlings assessed as bleaching ratings at 1 ppm incubated for 4 days at 25 degC under 12 hr photoperiod. It counts as functional.
The subject of test [8] is Radish. Description: Reduction in carotenoid content in Raphanus sativus cv. Osaka (radish) seedlings at 100 uM incubated for 4 days at 25 degC under 12 hr photoperiod. It is filed as functional, organism-based.
In test [9] the test system is Radish. Description: Induction of phytoene accumulation in Raphanus sativus cv. Osaka (radish) seedlings at 10 to 100 uM incubated for 4 days at 25 degC under dark conditions. It counts as functional, organism-based.
Test [10] concerns Radish. Description: Reduction in phytoene accumulation in Raphanus sativus cv. Osaka (radish) seedlings at 100 uM incubated for 4 days at 25 degC under dark conditions relative to untreated control. It is filed as functional, organism-based.
Test [11] deals with Radish. Description: Reduction in chlorophyll content in Raphanus sativus cv. Osaka (radish) seedlings at 10 uM incubated for 4 days at 25 degC under 12 hr photoperiod by spectrophotometry. It is filed as functional. The arrangement: scale not given: the % may be the effect or the level left.
The test system of test [12] is Radish. Briefly: Induction of phytoene accumulation in Raphanus sativus cv. Osaka (radish) seedlings at 50 uM incubated for 4 days at 25 degC under dark conditions relative to untreated control. It is filed as functional.
Test [13] concerns Radish. Description: Reduction in beta-carotene content in Raphanus sativus cv. Osaka (radish) seedlings at 10 to 100 uM incubated for 4 days at 25 degC under dark conditions. It counts as functional, organism-based.
The test system of test [14] is Radish. Description: Reduction in carotenoid content in Raphanus sativus cv. Osaka (radish) seedlings at 10 uM incubated for 4 days at 25 degC under 12 hr photoperiod. The arrangement: scale not given: the % may be the effect or the level left. It is filed as functional.
In test [15] the test system is Radish. Description: Reduction in chlorophyll content in Raphanus sativus cv. Osaka (radish) seedlings at 10 uM incubated for 4 days at 25 degC under dark conditions. It counts as functional, organism-based.
For test [16], the system named is Radish. Briefly: Reduction in carotenoid content in Raphanus sativus cv. Osaka (radish) seedlings at 10 to 100 uM incubated for 4 days at 25 degC under 12 hr photoperiod. It counts as functional, organism-based.
Test [17] relates to Radish. Description: Reduction in carotenoid content in Raphanus sativus cv. Osaka (radish) seedlings at 10 uM incubated for 4 days at 25 degC under dark conditions. It counts as functional, organism-based.
The subject of test [18] is Radish. Briefly: Reduction in chlorophyll content in Raphanus sativus cv. Osaka (radish) seedlings at 10 to 100 uM incubated for 4 days at 25 degC under 12 hr photoperiod by spectrophotometry. It is filed as functional, organism-based.

With `CCCSc1nncn1-c1ccccc1`, the Activity in [1] was 2; in [2] it was 1; in test [3], 4.
Take `C#CCSc1nncn1-c1ccccc1Cl`: the Activity in test [4], in test [1], in test [6], in [2] and in [7] was 0 each time. Moreover, the outcome in test [5] and in test [8] was inactive.
In the case of `CSc1nncn1-c1ccccc1`, the Activity in test [1], in test [2] and in [3] was 0 throughout.
`C#CCSc1nncn1-c1ccc(Cl)cc1`: the result in [9], in test [10], in test [13], in test [15], in [16] and in test [17] was Active. Besides, the outcome in test [18] was Active. In addition, the Activity in test [4] amounted to 1; in [11] it was 60%; in [1], 4; in test [6], 2; in test [14] it was 60%; in test [2], 3. In addition, in [7], the Activity was found to be 0. In addition, the “fold change (FC)” value in test [12] came out at 150.
For `CCCS(=O)(=O)c1nncn1-c1ccccc1`, the Activity in test [1], in test [2] and in [3] was 0 each time.
In the case of `C#CCSc1nncn1-c1ccccc1`, the Activity in [4] is on record as 0; in test [1] it was 3; in test [6], 0; in test [2] it was 1; in test [7], 0; in [3], 4.
`C#CCSc1nncn1-c1cccc(Cl)c1`: the result in test [9], in [13], in [15], in [16], in test [17] and in test [18] was Active. Besides, the Activity in [4] stood at 2; in test [11], 60%; in test [1], 4; in [6], 3; in test [14], 60%; in test [2], 3. Further, in test [7], the Activity stood at 0.
`c1ccc(CSc2nncn2-c2ccccc2)cc1`: the figures for the Activity in test [1], in [2] and in test [3] were 1, 1 and 2, respectively.
Regarding `C#CCSc1nncn1-c1ccc(C)cc1`, the Activity in test [4] came out at 1; in [1] it was 3; in [6], 3; in test [2], 3; in test [7], 0.
For `Sc1nncn1-c1ccccc1`, the Activity in test [1], in test [2] and in test [3] was 0 each time.
In the case of `CCCCSc1nncn1-c1ccccc1`, the Activity in test [1] amounted to 1; in test [2], 0; in test [3] it was 2.
For the molecule `C#CCSc1nncn1-c1ccc(OCC)cc1`, the Activity is recorded as 1 in [4]; 3 in test [1]; 2 in test [6]; 3 in test [2]; 0 in test [7].
As for `C#CCSc1nncn1-c1ccc(C(F)(F)F)cc1`, the Activity amounted to 1 in test [4]; 3 in [1]; 2 in test [6]; 3 in test [2]; 0 in [7].
Turning to `CCSc1nncn1-c1ccccc1`, the Activity amounted to 2 in [1], 1 in test [2] and 3 in test [3].
On to `C=CCSc1nncn1-c1ccccc1`, for which the Activity in test [1], in [2] and in test [3] was 0 in each case.
`COCSc1nncn1-c1ccccc1`: the Activity in [1], in [2] and in test [3] was 0 each time.
Take `C#CCSc1nncn1-c1ccc(Cl)c(Cl)c1`: the Activity in test [4] is recorded as 2; in test [1], 4; in test [6], 3; in test [2], 4; in test [7], 0.
As to `C#CCSc1nncn1-c1cccc(C(F)(F)F)c1`, the Activity in test [4] was 1; in test [1] it was 3; in test [6], 2; in test [2] it was 3; in test [7] it was 0.
